Experimental data: patent publication US9326539B2, “Compositions comprising dietary fat complexers and methods for their use” (Soho Flordis International Pty. Ltd., priority 2002, dated 2016)

Experiments:
[1] = in vitro study of vegetable oil, water and cyclodextrin: band of wax-like complex; type: physicochemical; settings: vegetable oil 4 g, water 6 g, varying amounts of cyclodextrin (100-2,000 mg), centrifuged
Procedure: FIG. 9A-9C depicts the results of an in vitro study of vegetable oil (4 g), water (6 g) (with added food coloring for contrast) and varying amounts of (A) α-cyclodextrin (100-2,000 mg, right to left), (B) β-cyclodextrin or (C) γ-cyclodextrin. A band of “wax-like” material layered between the oil and aqueous phases is apparent in the tubes. […] Note the increasing size (right to left) of a white layer of un-reacted α-cyclodextrin in the bottom of the tubes. This material is displaced from solution by either the oil or the α-cyclodextrin-oil complex. These tubes were centrifuged in order to improve the definition of the layers. The “wax-like” complex is of such a consistency that all of the tubes except for the furthest two to the right can be inverted without leakage of the aqueous phase around the complex.
FIGS. 9A-9C depict the results of an in vitro study of vegetable oil (4 g), water (6 g) (with added food coloring for contrast) and varying amounts of (A) α-cyclodextrin (100-2,000 mg, right to left), (B) β-cyclodextrin or (C) γ-cyclodextrin. A band of “wax-like” material layered between the oil and aqueous phases is apparent in the tubes. […] Note the increasing size (right to left) of a white layer of un-reacted α-cyclodextrin in the bottom of the tubes. This material is displaced from solution by either the oil or the α-cyclodextrin-oil complex. These tubes were centrifuged in order to improve the definition of the layers. The “wax-like” complex is of such a consistency that all of the tubes in 9A except for the furthest two to the right can be inverted without leakage of the aqueous phase around the complex.
Thus one would not have expected α-cyclodextrin to complex triglyceride molecules because the molecules would not fit within the pore of the α α-cyclodextrin. […] The white substance in the bottom of the tubes is precipitated cyclodextrin.

[2] = Wistar rat feeding study: fecal fat content (total lipid of feces); type: in vivo, Wistar rats; settings: collected feces, final three days
Source text: (§1) The rats were housed as pairs for five weeks prior to being placed in individual metabolic cages for the sixth week of the study. All of the rats' feces were collected during the final three days of the study. At the end of the sixth week of the study period the rats were sacrificed by decapitation after a brief exposure to carbon dioxide gas. Trunk blood and the livers were collected from each animal. The rest of the body was eviscerated and all visible fat from the internal cavity was collected and weighed. The carcass was frozen for body composition analysis at a later date.
Total lipid determinations were performed on the collected feces using standard techniques Folch et al. J Biol. Chem 226: 497-509 (1957) incorporated by reference. […] On average this increase was approximately 25%. […] The latter observation was confirmed by visual inspection of the feces.

[3] = Wistar rat feeding study: plasma glucose, cholesterol, triglyceride, insulin resistance; type: in vivo, Wistar rats
Source text: as §1
The plasma glucose, cholesterol and triglyceride concentrations were measured on all of the sacrificed animals using standard clinical laboratory techniques as may be found in Tietz Textbook of Clinical Chemistry, second edition. Burtis C A and Ashwood E R eds., W.B. Saunders Company A Division of Harcourt Brace & Company, 1994, Philadelphia incorporated herein by reference. (FIG. 5). On average the α-cyclodextrin appeared to have decreased the plasma total cholesterol levels by about 10%. This decrease was not statistically significant over this short study period; we expect that with longer feeding period, cholesterol levels will continue to decline. […] LDL cholesterol levels on all of the animals were too low to measure reliably since in rats the majority of the cholesterol is carried in the HDL-cholesterol fraction, and very little is carried in the LDL-cholesterol fraction.
Increased insulin resistance, elevated blood triglycerides and reduced HDL cholesterol levels are all the risk factors of Syndrome X. Insulin/glucose ratios as well as triglyceride/HDL ratios were calculated to provide indications about insulin resistance and risk of Syndrome X. (Szejtli J. Mater. Chem. 1997; 7:575-587 incorporated herein by reference). […] The reduction in triglyceride/HDL cholesterol ratios by α-cyclodextrin indicated a significant decrease in the risk for Syndrome X.

[4] = human volunteer on high fat diet with α-cyclodextrin: weight loss and blood parameters; type: in vivo; settings: one volunteer; for HDL cholesterol: baseline 0.97; for Triglycerides: baseline 2.76; for Insulin Resistance: baseline 2.85; for Cholesterol: baseline 4.76
Procedure: The α-cyclodextrin was added to the subject's diet in a proportion of one gram Of α-cyclodextrin for every nine grams of fat that were estimated to be consumed by the subject. […] 200 days, approximately 6 months— By 6 months the subject's body weight was reduced by 32 pounds. In addition to the weight loss, within the first two weeks of the study, the subject's elevated blood pressure fell to the point where they were forced to reduce their prescribed beta-blacker by one-third. Their blood triglycerides were also assayed during this time and their blood serum triglyceride levels were decreased by 23% within the first month and 46% by the end of six months.

[5] = dog with chronic diarrhea fed α-cyclodextrin with dry food; type: in vivo; settings: 2.5 g α-cyclodextrin with two cups dry food twice a day for two and one-half weeks, α-cyclodextrin:fat about 1:9
Procedure: An eighteen month old, neutered male dog of unknown parentage having chronic diarrhea was de-wormed twice and placed on hypoallergenic food in an effort to control the diarrhea. However, the chronic diarrhea was not alleviated and the dog stopped eating for a day or two on two or three separate occasions.
The dog was then treated with α-cyclodextrin as follows: The dog was placed on a diet comprising a teaspoon (2.5 g) of α-cyclodextrin mixed with two cups dry food twice a day for two and one-half weeks. Based on the fat content in the food, the ratio of α-cyclodextrin to fat was about 1:9. The dog's chronic diarrhea was eliminated during this period except for an acute episode of loose stools after a day of swimming in a river but the stool has been formed ever since.
The dog very quickly lost his appetite, self restricted his food intake by about one-half and began eating grass, grass helps to bind his stool. The diarrhea returned.

OC[C@H]1O[C@@H]2O[C@H]3[C@H](O)[C@@H](O)[C@@H](O[C@H]4[C@H](O)[C@@H](O)[C@@H](O[C@H]5[C@H](O)[C@@H](O)[C@@H](O[C@H]6[C@H](O)[C@@H](O)[C@@H](O[C@H]7[C@H](O)[C@@H](O)[C@@H](O[C@H]1[C@H](O)[C@H]2O)O[C@@H]7CO)O[C@@H]6CO)O[C@@H]5CO)O[C@@H]4CO)O[C@@H]3CO [α-cyclodextrin]
band of wax-like material (complexed fat) between oil and aqueous phases [1]: maximum in the tube labeled 10% (400 mg α-cyclodextrin/4 g oil) | visual inspection of feces [2]: no indication of diarrhea | triglyceride/HDL cholesterol ratios ([3]; 6 week study): reduction | decrease of HDL cholesterol ([3]; at sacrifice): 6-8% | plasma glucose levels ([3]; at sacrifice): not affected significantly | reduction of plasma triglyceride levels ([3]; at sacrifice, p<0.05): about 30% | decrease of plasma total cholesterol ([3]; on average, at sacrifice, not statistically significant): about 10% | body weight reduction ([4]; initial weight 267 pounds, 1 g α-cyclodextrin per 9 g fat, by 6 months): 32 pounds | Body Mass Index ([4]; 1 month): 39.17 | Hip ([4]; 1 month): 127 cm | Waist ([4]; 1 month): 124 cm | HDL cholesterol ([4]; 1 month): 1.00 mmol/L | Triglycerides ([4]; 1 month): 2.13 mmol/L | Insulin Resistance ([4]; 1 month): 2.13 | Cholesterol ([4]; 1 month): 4.76 mmol/L | Body Mass Index ([4]; 6 months): 37.27 | Hip ([4]; 6 months): 117 cm | Waist ([4]; 6 months): 117 cm | HDL cholesterol ([4]; 6 months): 1.11 mmol/L | Triglycerides ([4]; 6 months): 1.50 mmol/L | Insulin Resistance ([4]; 6 months): 1.35 | Cholesterol ([4]; 6 months): 4.0 mmol/L | decrease of blood serum triglyceride levels ([4]; by the end of six months): 46% | decrease of blood serum triglyceride levels ([4]; within the first month): 23% | elevated blood pressure ([4]; within the first two weeks): fell | chronic diarrhea [5]: eliminated
